According to patent publication US20230321253A1, “BIFUNCTIONAL COMPOUNDS AND PHARMACEUTICAL USES THEREOF” (RISEN (SUZHOU) PHARMA TECH CO., LTD., priority 2022, published 2023):
pIC50: −log10 of the molar value.

Key:
Aspc-1 cells = assay: Cell proliferation study in Aspc-1 cells (Cell Titer Glo); format: cell-based; conditions: Homo sapiens, ASPC1, 72 hours, read-out: IC50, inhibitory effect on cellular proliferation
Description: Aspc-1 (Cobioer, CBP60546) cells were grown in RPMI 1640 (Gibco, 61870127) supplemented with 10% fetal bovine serum (Gibco, 10099141), 1% penicillin-streptomycin (Gibco, 15070-063). Aspc-1 cells in exponential growth phase were seeded into 96-well plate (Corning, 3599) at density of 4×10^3/well. Cells were cultured overnight at 37° C. with 5% CO2. On the next day, cells were treated with test compound at various concentrations for 72 hours in 37° C., 5% CO2 incubator (final DMSO concentration was 0.1%). After treatment, 100 μL Cell Tier Glo (Promega, G7573) was added to every well of the cell plates and the plates were incubated at room temperature (RT) for 10 minutes. Cell growth status was measured with Cell Tier Glo (Promega, G7573) following the manufacturer's instructions. The inhibition curve was obtained with GraphPad 7.0 software using four-parameter equation.

KRAS-G12D protein = biological target: T1, KRAS-G12D protein (Homo sapiens, UniProt P01116, G12D); assay: KRAS-G12D protein degradation study in Aspc-1 cells (western blot); format: cell-based; conditions: for inhibition at 0.05 µM / inhibition at 0.1 µM / inhibition at 1 µM: ASPC1, 24 h; for inhibition at 0.05 µM: Aspc-1 cells treated with 50 nM compound, read-out: Rate of degradation (KRAS^G12D); for DC50: Aspc-1 cells, read-out: DC50 of test compound-induced KRAS^G12D protein degradation; for inhibition at 0.1 µM / inhibition at 1 µM: read-out: Rate of protein degradation (KRAS^G12D); for inhibition at 1 µM: Aspc-1 cells treated with 1 μM compound
T1 construct: host or cells: Aspc-1 cells
T1 sequence (P01116 1-188 isoform P01116-2 G12D): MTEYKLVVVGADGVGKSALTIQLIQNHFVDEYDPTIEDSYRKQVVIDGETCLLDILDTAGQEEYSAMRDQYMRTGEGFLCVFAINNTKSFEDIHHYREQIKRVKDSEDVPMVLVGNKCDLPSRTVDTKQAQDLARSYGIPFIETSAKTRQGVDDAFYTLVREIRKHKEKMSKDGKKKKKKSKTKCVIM
In short: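 AsPC-1 cells were treated with compound for 24 h at 37° C (0.1% DMSO final), then lysed; KRAS levels measured by western blot. Degradation % = 1 − (KRAS/GAPDH, compound) ÷ (KRAS/GAPDH, DMSO), ×100; DC50 derived from concentration curves.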

[1] = Aspc-1 cells treated with 0.1 μM compound, 24 hours

SMILES	pIC50 (Aspc-1 cells)	inhibition at 0.05 µM (KRAS-G12D protein; 24 hours) [%]	DC50 (KRAS-G12D protein) [nM]	further results
C#Cc1c(F)ccc2cc(O)cc(-c3ncc4c(N5CC6CCC(C5)N6)nc(OCC5(CN6CCC7(CC6)CC(N6CCC(c8cccc9c8CN(C8CCC(=O)NC8=O)C9=O)CC6)C7)CC5)nc4c3F)c12 (stereo not drawn) [Compound 157]	6.00 to 7.00	11 to 30	> 200	
C#Cc1c(F)ccc2cc(O)cc(-c3ncc4c(N5CC6CCC(C5)N6)nc(OC5CCN(CC(=O)N6CCC7(CC6)CC(N6CCC(c8ccc9c(C%10CCC(=O)NC%10=O)nn(C)c9c8)CC6)C7)CC5)nc4c3F)c12 (stereo not drawn) [Compound 82]	5.30 to 6.00		< 10	inhibition at 0.1 µM (KRAS-G12D protein; [1]): > 60%
CCc1c(F)ccc2cc(O)cc(-c3ncc4c(N5CC6CCC(C5)N6)nc(OCCCN5CCN(C(=O)CCCCC(=O)N[C@H](C(=O)N6C[C@H](O)C[C@H]6C(=O)NCc6ccc(-c7scnc7C)cc6)C(C)(C)C)CC5)nc4c3F)c12 [Compound 26]	5.30 to 6.00			
C#Cc1c(F)ccc2cc(O)cc(-c3ncc4c(N5CC6CCC(C5)N6)nc(OC5CCN(CCCCCCCCCCCC(=O)N[C@H](C(=O)N6C[C@H](O)C[C@H]6C(=O)NCc6ccc(-c7scnc7C)cc6)C(C)(C)C)CC5)nc4c3F)c12 [Compound 46]	6.00 to 7.00			inhibition at 1 µM (KRAS-G12D protein; 24 hours): > 60%
C#Cc1c(F)ccc2cc(O)cc(-c3ncc4c(N5CC6CCC(C5)N6)nc(OC5CCCN(CCCCCCCCCCC(=O)N6CCC(c7ccc8c(C9CCC(=O)NC9=O)nn(C)c8c7)CC6)C5)nc4c3F)c12 (stereo not drawn) [Compound 49]	5.30 to 6.00			
C#Cc1c(F)ccc2cc(O)cc(-c3ncc4c(N5CC6CCC(C5)N6)nc(OCC5(CN6CCC(CN7CCC(c8ccc9c(c8)CN(C8CCC(=O)NC8=O)C9=O)CC7)CC6)CC5)nc4c3F)c12 (stereo not drawn) [Compound 146]	> 7.00	> 60	< 10	
C#Cc1c(F)ccc2cc(O)cc(-c3ncc4c(N5CC6CCC(C5)N6)nc(OCC5(CN6CCC7(CC6)CC(N6CCC(c8ccc9c%10c(cccc8%10)C(=O)N9C8CCC(=O)NC8=O)CC6)C7)CC5)nc4c3F)c12 (stereo not drawn) [Compound 158]	> 7.00	> 60	< 10	
C#Cc1c(F)ccc2cc(O)cc(-c3ncc4c(N5CC6CCC(C5)N6)nc(OCC5(CN6CCC7(CC6)CC(N6CCN(c8ccc(NC9CCC(=O)NC9=O)cc8F)CC6)C7)CC5)nc4c3F)c12 (stereo not drawn) [Compound 150]	> 7.00	> 60	< 10	
C#Cc1c(F)ccc2cc(O)cc(-c3ncc4c(N5CC6CCC(C5)N6)nc(OC5CCN(CCCCCCCCCCCCCC(=O)N[C@H](C(=O)N6C[C@H](O)C[C@H]6C(=O)NCc6ccc(-c7scnc7C)cc6)C(C)(C)C)CC5)nc4c3F)c12 [Compound 47]	5.30 to 6.00			inhibition at 1 µM (KRAS-G12D protein; 24 hours): 31 to 60%
C#Cc1c(F)ccc2cc(O)cc(-c3ncc4c(N5CC6CCC(C5)N6)nc(OCCCN5CCN(C(=O)CN6CCC(c7ccc8c(C9CCC(=O)NC9=O)nn(C)c8c7)CC6)CC5)nc4c3F)c12 (stereo not drawn) [Compound 33]	6.00 to 7.00			inhibition at 0.1 µM (KRAS-G12D protein; [1]): 31 to 60%; inhibition at 1 µM (KRAS-G12D protein; 24 hours): > 60%
C#Cc1c(F)ccc2cc(O)cc(-c3ncc4c(N5CC6CCC(C5)N6)nc(OCC5(CN6CCC7(CC6)CC(N6CCN(c8ccc9c(c8)C(=O)N(C8CCC(=O)NC8=O)C9=O)CC6)C7)CC5)nc4c3F)c12 (stereo not drawn) [Compound 154]	> 7.00	> 60	< 10	
C#Cc1c(F)ccc2cc(O)cc(-c3ncc4c(N5CC6CCC(C5)N6)nc(OCC5(CN6CCC7(CC6)CC(N6CCC(c8ccc9c(C%10CCC(=O)NC%10=O)nn(C)c9c8)CC6)C7)CC5)nc4c3F)c12 (stereo not drawn) [Compound 112]	> 7.00		< 10	inhibition at 0.1 µM (KRAS-G12D protein; [1]): > 60%
CCc1c(F)ccc2cc(O)cc(-c3ncc4c(N5CC6CCC(C5)N6)nc(OC5CCN(CCCCCCCCCC(=O)N[C@H](C(=O)N6C[C@H](O)C[C@H]6C(=O)NCc6ccc(-c7scnc7C)cc6)C(C)(C)C)CC5)nc4c3F)c12 [Compound 42]	5.30 to 6.00			
C#Cc1c(F)ccc2cc(O)cc(-c3ncc4c(N5CC6CCC(C5)N6)nc(OCC5(CN6CCC(CN7CCN(c8cccc9c8C(=O)N(C8CCC(=O)NC8=O)C9=O)CC7)CC6)CC5)nc4c3F)c12 (stereo not drawn) [Compound 135]	> 7.00	31 to 60	< 10	
C#Cc1c(F)ccc2cc(O)cc(-c3ncc4c(N5CC6CCC(C5)N6)nc(OC5CCN(CCCCCCCCCC(=O)N6CCC(c7ccc8c(C9CCC(=O)NC9=O)nn(C)c8c7)CC6)CC5)nc4c3F)c12 (stereo not drawn) [Compound 50]	5.30 to 6.00			inhibition at 1 µM (KRAS-G12D protein; 24 hours): 11 to 30%
C#Cc1c(F)ccc2cc(O)cc(-c3ncc4c(N5CC6CCC(C5)N6)nc(OCC5(CN6CCN(C(=O)CN7CCC(c8ccc9c(C%10CCC(=O)NC%10=O)nn(C)c9c8)CC7)CC6)CC5)nc4c3F)c12 (stereo not drawn) [Compound 92]	> 7.00		< 10	Rate of protein degradation (KRAS^G12D) (KRAS-G12D protein; [1]): +++ (greater than 60%)
C#Cc1c(F)ccc2cc(O)cc(-c3ncc4c(N5CC6CCC(C5)N6)nc(OC5CCCN(CCCCCCCCCCC(=O)N[C@H](C(=O)N6C[C@H](O)C[C@H]6C(=O)N[C@@H](C)c6ccc(-c7scnc7C)cc6)C(C)(C)C)C5)nc4c3F)c12 (stereo partly drawn) [Compound 48]	5.30 to 6.00			
C#Cc1c(F)ccc2cc(O)cc(-c3ncc4c(N5CC6CCC(C5)N6)nc(OCC5(CN6CCC(C7CCN(c8ccc(NC9CCC(=O)NC9=O)cc8F)CC7)CC6)CC5)nc4c3F)c12 (stereo not drawn) [Compound 140]		31 to 60		
C#Cc1c(F)ccc2cc(O)cc(-c3ncc4c(N5CC6CCC(C5)N6)nc(OCCCN5CCN(C(=O)CCCCC(=O)N[C@H](C(=O)N6C[C@H](O)C[C@H]6C(=O)NCc6ccc(-c7scnc7C)cc6)C(C)(C)C)CC5)nc4c3F)c12 [Compound 27]	6.00 to 7.00			
C#Cc1c(F)ccc2cc(O)cc(-c3ncc4c(N5CC6CCC(C5)N6)nc(OCCCN5CCN(CCC(=O)C6CCC(c7ccc8c(C9CCC(=O)NC9=O)nn(C)c8c7)CC6)CC5)nc4c3F)c12 (stereo not drawn) [Compound 74]				inhibition at 0.1 µM (KRAS-G12D protein; [1]): 31 to 60%
C#Cc1c(F)ccc2cc(O)cc(-c3ncc4c(N5CC6CCC(C5)N6)nc(OCC5(CN6CCN(c7ccc(C(=O)NC8CCC(=O)NC8=O)nc7)CC6)CC5)nc4c3F)c12 (stereo not drawn) [Compound 145]		≤ 10		
C#Cc1c(F)ccc2cc(O)cc(-c3ncc4c(N5CC6CCC(C5)N6)nc(OCC5(CN6CCN(C(=O)CN7CCN(c8ccc(C(=O)NC9CCC(=O)NC9=O)nc8)CC7)CC6)CC5)nc4c3F)c12 (stereo not drawn) [Compound 126]		≤ 10		
C#Cc1c(F)ccc2cc(O)cc(-c3ncc4c(N5CC6CCC(C5)N6)nc(OC[C@@H]5C[C@@H](NC(=O)CCCCCCCCCCC(=O)N[C@H](C(=O)N6C[C@H](O)C[C@H]6C(=O)N[C@@H](C)c6ccc(-c7scnc7C)cc6)C(C)(C)C)CN5C)nc4c3F)c12 [Compound 90]				inhibition at 0.1 µM (KRAS-G12D protein; [1]): ≤ 10%
C#Cc1c(F)ccc2cc(O)cc(-c3ncc4c(N5CC6CCC(C5)N6)nc(OC5CCN(CCCCCCCC(=O)N[C@H](C(=O)N6C[C@H](O)C[C@H]6C(=O)NCc6ccc(-c7scnc7C)cc6)C(C)(C)C)CC5)nc4c3F)c12 [Compound 39]	5.00 to 5.30			
C#Cc1c(F)ccc2cc(O)cc(-c3ncc4c(N5CC6CCC(C5)N6)nc(OCC5(CN6CCC(C(=O)N7CCN(c8ccc(NC9CCC(=O)NC9=O)cc8F)CC7)CC6)CC5)nc4c3F)c12 (stereo not drawn) [Compound 107]				inhibition at 0.1 µM (KRAS-G12D protein; [1]): 11 to 30%
C#Cc1c(F)ccc2cc(O)cc(-c3ncc4c(N5CC6CCC(C5)N6)nc(OCCCN5CCC(C(=O)N6CCC(c7ccc8c(C9CCC(=O)NC9=O)nn(C)c8c7)CC6)CC5)nc4c3F)c12 (stereo not drawn) [Compound 72]				inhibition at 0.1 µM (KRAS-G12D protein; [1]): > 60%; inhibition at 1 µM (KRAS-G12D protein; 24 hours): > 60%
C#Cc1c(F)ccc2cc(O)cc(-c3ncc4c(N5CC6CCC(C5)N6)nc(OC5CCN(CCOCCNC(=O)CO[C@@H]6C[C@H](C)CC[C@H]6C(C)C)C5)nc4c3F)c12 (stereo partly drawn) [Compound 148]		≤ 10		
C#Cc1c(F)ccc2cc(O)cc(-c3ncc4c(N5CC6CCC(C5)N6)nc(OCC5(CN6CCC7(CC6)CC(N6CCC(c8cccc9c8C(=O)N(C8CCC(=O)NC8=O)C9=O)CC6)C7)CC5)nc4c3F)c12 (stereo not drawn) [Compound 171]		≤ 10		
C#Cc1c(F)ccc2cc(O)cc(-c3ncc4c(N5CC6CCC(C5)N6)nc(OC[C@@H]5C[C@@H](NC(=O)N6CCC(c7ccc8c(C9CCC(=O)NC9=O)nn(C)c8c7)CC6)CN5C)nc4c3F)c12 (stereo partly drawn) [Compound 95]				inhibition at 0.1 µM (KRAS-G12D protein; [1]): 11 to 30%
C#Cc1c(F)ccc2cc(O)cc(-c3ncc4c(N5CC6CCC(C5)N6)nc(OCC5(CN6CCC(CN7CCN(c8ccc(C(=O)NC9CCC(=O)NC9=O)nc8)CC7)CC6)CC5)nc4c3F)c12 (stereo not drawn) [Compound 136]		≤ 10		
